*1 amine or outer side, *2 acyl side, *3 side chain or, on linkers, in order; H or OH if unused. Where a SMILES comes first, the peptide text is derived from it. Side-chain parts run from the residue outwards. [ ]: non-standard residue; d: D form. The star is where a group is joined. Isobutyryl(2-(3-CN-5-F-Ph)) = CC(C)(C(=O)*)c1cc(F)cc(C#N)c1; C20 diacid = O=C(O)CCCCCCCCCCCCCCCCCCC(=O)*; X49 = O=C([C@H](CN[*:1])c1ccccc1)[*:2]; γGlu = O=C(O)[C@H](CCC(=O)[*:2])N[*:1]; X68 = CC(C)[C@@H](CN[*:1])C(=O)[*:2]; AEEA = NCCOCCOCC(=O)O; Aib = CC(C)(N)C(=O)O; βAla = NCCC(=O)O
How the values were obtained:
Assay type in all cases: cell-based
GLP-1 receptor [1] = target: T1, GLP-1 receptor (Homo sapiens, UniProt P43220); assay: PathHunter β-arrestin assay, GLP-1 receptor; parameters: host or cells: PathHunter CHO-K1 GLP1R β-Arrestin Cell Line; details: β-arrestin-2 recruitment, PathHunter CHO-K1 GLP1R β-Arrestin Cell Line, 90 min at 37° C.; normalized to GLP-1; read-out: GLP-1R β Arrestin EC50
T1 sequence (P43220 24-463): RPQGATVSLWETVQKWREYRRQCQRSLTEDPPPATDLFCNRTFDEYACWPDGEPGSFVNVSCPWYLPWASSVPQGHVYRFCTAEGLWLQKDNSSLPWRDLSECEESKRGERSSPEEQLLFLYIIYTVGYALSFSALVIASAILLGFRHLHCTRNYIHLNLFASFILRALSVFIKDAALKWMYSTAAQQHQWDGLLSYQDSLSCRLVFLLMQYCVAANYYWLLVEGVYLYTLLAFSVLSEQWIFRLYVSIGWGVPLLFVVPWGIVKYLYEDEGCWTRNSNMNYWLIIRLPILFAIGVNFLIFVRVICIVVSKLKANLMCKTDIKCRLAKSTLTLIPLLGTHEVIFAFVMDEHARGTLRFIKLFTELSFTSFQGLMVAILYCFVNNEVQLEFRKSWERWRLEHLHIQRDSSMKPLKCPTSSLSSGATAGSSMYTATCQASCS

GLP-1 receptor [2] = target: T1, GLP-1 receptor; assay: HitHunter cAMP assay, GLP-1 receptor; details: for EC50: CHO cells stably expressing human GLP-1 receptor, cAMP accumulation, 30 min, read-out: EC50 GLP-1R; for Emax: CHO cells, cAMP, normalized to maximum signal from GLP-1 (high) and DMSO (low), read-out: Emax GLP-1R
GIP receptor [3] = target: T2, GIP receptor (Homo sapiens, UniProt P48546); assay: PathHunter β-arrestin assay, GIP receptor; parameters: host or cells: PathHunter CHO-K1 GIPR β-Arrestin Cell Line; details: β-arrestin-2 recruitment, PathHunter CHO-K1 GIPR β-Arrestin Cell Line, 90 min at 37° C.; normalized to GIP; read-out: GIPR β Arrestin EC50
T2 sequence (P48546 22-466): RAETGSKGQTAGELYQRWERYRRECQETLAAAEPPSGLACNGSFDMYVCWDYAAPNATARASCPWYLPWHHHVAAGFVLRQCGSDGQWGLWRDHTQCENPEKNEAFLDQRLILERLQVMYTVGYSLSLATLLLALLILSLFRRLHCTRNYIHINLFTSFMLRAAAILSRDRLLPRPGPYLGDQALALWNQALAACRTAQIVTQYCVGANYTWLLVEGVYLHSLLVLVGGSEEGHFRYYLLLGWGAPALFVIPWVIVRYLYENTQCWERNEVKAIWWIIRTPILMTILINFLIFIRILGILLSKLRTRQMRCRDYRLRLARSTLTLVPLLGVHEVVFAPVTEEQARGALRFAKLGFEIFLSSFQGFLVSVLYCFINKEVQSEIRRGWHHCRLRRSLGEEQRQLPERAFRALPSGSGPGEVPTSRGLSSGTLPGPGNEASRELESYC

GIP receptor [4] = target: T2, GIP receptor; assay: HitHunter cAMP assay, GIP receptor; details: for EC50: CHO cells stably expressing GIP receptor, cAMP accumulation, 30 min, read-out: EC50 GIP-1R; for Emax: CHO cells, cAMP, normalized to maximum signal from GIP (high) and DMSO (low), read-out: Emax GIP-1R

Row | SMILES | EC50 (GLP-1 receptor [1]) [nM] | EC50 (GLP-1 receptor [2]) [nM] | Emax (GLP-1 receptor [2]) [%] | EC50 (GIP receptor [3]) [nM] | EC50 (GIP receptor [4]) [nM] | Emax (GIP receptor [4]) [%]
1 | CC[C@H](C)[C@H](NC(=O)[C@H](CO)NC(=O)[C@H](CCCCNC(=O)COCCOCCNC(=O)COCCOCCNC(=O)CC[C@H](NC(=O)CCCCCCCCCCCCCCCCCCC(=O)O)C(=O)O)NC(=O)[C@H](CC(=O)O)NC(=O)[C@H](CO)NC(=O)[C@@H](NC(=O)[C@H](Cc1ccccc1)NC(=O)[C@@H](NC(=O)CNC(=O)[C@H](CCC(=O)O)NC(=O)CCNC(=O)C(C)(C)c1cc(F)cc(C#N)c1)[C@@H](C)O)[C@@H](C)O)C(=O)N[C@@H](Cc1ccc(O)cc1)C(=O)N[C@@H](CC(C)C)C(=O)N[C@@H](CC(=O)O)C(=O)N[C@@H](CCCCN)C(=O)N[C@@H](CCC(N)=O)C(=O)N[C@@H](C)C(=O)N[C@@H](C)C(=O)NC(C)(C)C(=O)N[C@@H](CCC(=O)O)C(=O)N[C@@H](Cc1ccccc1)C(=O)N[C@H](C(=O)N[C@@H](CC(N)=O)C(=O)N[C@@H](Cc1c[nH]c2ccccc12)C(=O)N[C@@H](CC(C)C)C(=O)N[C@@H](CC(C)C)C(=O)N[C@@H](C)C(=O)NCC(=O)NCC(=O)N1CCC[C@H]1C(=O)N[C@@H](CO)C(=O)N[C@@H](CO)C(=O)NCC(=O)N[C@@H](C)C(=O)N1CCC[C@H]1C(=O)N1CCC[C@H]1C(=O)N1CCC[C@H]1C(=O)N[C@@H](CO)C(N)=O)C(C)C [Compound 167] ({Isobutyryl(2-(3-CN-5-F-Ph))-βAla}-EGTFTSDK([AEEA-AEEA-γGlu-C20 diacid])SIYLDKQAA[Aib]EFVNWLLAGGPSSGAPPPS-NH2) | > 1000 | 0.1 to 1 | 108 | > 1000 | 10 to 100 | 91
2 | CC[C@H](C)[C@H](NC(=O)[C@H](CC(C)C)NC(=O)[C@H](Cc1c[nH]c2ccccc12)NC(=O)[C@H](CCC(N)=O)NC(=O)[C@@H](NC(=O)[C@H](Cc1ccccc1)NC(=O)[C@H](C)NC(=O)[C@H](CCCCNC(=O)COCCOCCNC(=O)COCCOCCNC(=O)CC[C@H](NC(=O)CCCCCCCCCCCCCCCCCCC(=O)O)C(=O)O)NC(=O)[C@H](CCC(N)=O)NC(=O)[C@H](C)NC(=O)[C@@H](NC(=O)[C@H](CCCCN)NC(=O)[C@H](CC(=O)O)NC(=O)[C@H](CC(C)C)NC(=O)C(C)(C)NC(=O)[C@@H](NC(=O)[C@H](CO)NC(=O)[C@H](Cc1ccc(O)cc1)NC(=O)[C@H](CC(=O)O)NC(=O)[C@H](CO)NC(=O)[C@H](C)NC(=O)[C@H](Cc1ccccc1)NC(=O)[C@@H](NC(=O)CNC(=O)[C@H](CCC(=O)O)NC(=O)CCNC(=O)C(C)(C)c1cc(F)cc(C#N)c1)[C@@H](C)O)[C@@H](C)CC)[C@@H](C)CC)C(C)C)C(=O)N[C@@H](C)C(=O)NCC(=O)NCC(=O)N1CCC[C@H]1C(=O)N[C@@H](CO)C(=O)N[C@@H](CO)C(=O)NCC(=O)N[C@@H](C)C(=O)N1CCC[C@H]1C(=O)N1CCC[C@H]1C(=O)N1CCC[C@H]1C(=O)N[C@@H](CO)C(N)=O [Compound 168] ({Isobutyryl(2-(3-CN-5-F-Ph))-βAla}-EGTFASDYSI[Aib]LDKIAQK([AEEA-AEEA-γGlu-C20 diacid])AFVQWLIAGGPSSGAPPPS-NH2) | > 1000 | 10 to 100 | 87 | < 1000 | 1 to 10 | 112
3 | CC[C@H](C)[C@H](NC(=O)[C@H](CC(C)C)NC(=O)[C@H](Cc1c[nH]c2ccccc12)NC(=O)[C@H](CCC(N)=O)NC(=O)[C@@H](NC(=O)[C@H](Cc1ccccc1)NC(=O)[C@H](C)NC(=O)[C@H](CCCCNC(=O)COCCOCCNC(=O)COCCOCCNC(=O)CC[C@H](NC(=O)CCCCCCCCCCCCCCCCCCC(=O)O)C(=O)O)NC(=O)[C@H](CCC(N)=O)NC(=O)[C@H](C)NC(=O)[C@@H](NC(=O)[C@H](CCCCN)NC(=O)[C@H](CC(=O)O)NC(=O)[C@H](CC(C)C)NC(=O)C(C)(C)NC(=O)[C@@H](NC(=O)[C@H](CO)NC(=O)[C@H](Cc1ccc(O)cc1)NC(=O)[C@H](CC(=O)O)NC(=O)[C@H](CO)NC(=O)[C@@H](NC(=O)[C@H](Cc1ccccc1)NC(=O)[C@@H](NC(=O)CNC(=O)[C@H](CCC(=O)O)NC(=O)CCNC(=O)C(C)(C)c1cc(F)cc(C#N)c1)[C@@H](C)O)[C@@H](C)O)[C@@H](C)CC)[C@@H](C)CC)C(C)C)C(=O)N[C@@H](C)C(=O)NCC(=O)NCC(=O)N1CCC[C@H]1C(=O)N[C@@H](CO)C(=O)N[C@@H](CO)C(=O)NCC(=O)N[C@@H](C)C(=O)N1CCC[C@H]1C(=O)N1CCC[C@H]1C(=O)N1CCC[C@H]1C(=O)N[C@@H](CO)C(=O)O [Compound 169] ({Isobutyryl(2-(3-CN-5-F-Ph))-βAla}-EGTFTSDYSI[Aib]LDKIAQK([AEEA-AEEA-γGlu-C20 diacid])AFVQWLIAGGPSSGAPPPS-OH) | > 1000 | 0.1 to 1 | 108 | < 1000 | 1 to 10 | 110
4 | CC[C@H](C)[C@H](NC(=O)[C@H](CC(C)C)NC(=O)[C@H](Cc1c[nH]c2ccccc12)NC(=O)[C@H](CCC(N)=O)NC(=O)[C@@H](NC(=O)[C@H](Cc1ccccc1)NC(=O)[C@H](C)NC(=O)[C@H](CCCCNC(=O)COCCOCCNC(=O)COCCOCCNC(=O)CC[C@H](NC(=O)CCCCCCCCCCCCCCCCCCC(=O)O)C(=O)O)NC(=O)[C@H](CCC(N)=O)NC(=O)[C@H](C)NC(=O)[C@@H](NC(=O)[C@H](CCCCN)NC(=O)[C@H](CC(=O)O)NC(=O)[C@H](CC(C)C)NC(=O)C(C)(C)NC(=O)[C@@H](NC(=O)[C@H](CO)NC(=O)[C@H](Cc1ccc(O)cc1)NC(=O)[C@H](CC(=O)O)NC(=O)[C@H](CO)NC(=O)[C@@H](NC(=O)[C@H](Cc1ccccc1)NC(=O)[C@@H](NC(=O)CNC(=O)[C@H](CCC(=O)O)NC(=O)[C@H](CNC(=O)C(C)(C)c1cc(F)cc(C#N)c1)c1ccccc1)[C@@H](C)O)[C@@H](C)O)[C@@H](C)CC)[C@@H](C)CC)C(C)C)C(=O)N[C@@H](C)C(=O)NCC(=O)NCC(=O)N1CCC[C@H]1C(=O)N[C@@H](CO)C(=O)N[C@@H](CO)C(=O)NCC(=O)N[C@@H](C)C(=O)N1CCC[C@H]1C(=O)N1CCC[C@H]1C(=O)N1CCC[C@H]1C(=O)N[C@@H](CO)C(N)=O [Compound 170] ({Isobutyryl(2-(3-CN-5-F-Ph))}-[X49]EGTFTSDYSI[Aib]LDKIAQK([AEEA-AEEA-γGlu-C20 diacid])AFVQWLIAGGPSSGAPPPS-NH2) | > 1000 | 100 to 1000 | 57 | > 1000 | 100 to 1000 | 37
5 | CC[C@H](C)[C@H](NC(=O)[C@H](CC(C)C)NC(=O)[C@H](Cc1c[nH]c2ccccc12)NC(=O)[C@H](CCC(N)=O)NC(=O)[C@@H](NC(=O)[C@H](Cc1ccccc1)NC(=O)[C@H](C)NC(=O)[C@H](CCCCNC(=O)COCCOCCNC(=O)COCCOCCNC(=O)CC[C@H](NC(=O)CCCCCCCCCCCCCCCCCCC(=O)O)C(=O)O)NC(=O)[C@H](CCC(N)=O)NC(=O)[C@H](C)NC(=O)[C@@H](NC(=O)[C@H](CCCCN)NC(=O)[C@H](CC(=O)O)NC(=O)[C@H](CC(C)C)NC(=O)C(C)(C)NC(=O)[C@@H](NC(=O)[C@H](CO)NC(=O)[C@H](Cc1ccc(O)cc1)NC(=O)[C@H](CC(=O)O)NC(=O)[C@H](CO)NC(=O)[C@@H](NC(=O)[C@H](Cc1ccccc1)NC(=O)[C@@H](NC(=O)CNC(=O)[C@H](CCC(=O)O)NC(=O)[C@H](CNC(=O)C(C)(C)c1cc(F)cc(C#N)c1)C(C)C)[C@@H](C)O)[C@@H](C)O)[C@@H](C)CC)[C@@H](C)CC)C(C)C)C(=O)N[C@@H](C)C(=O)NCC(=O)NCC(=O)N1CCC[C@H]1C(=O)N[C@@H](CO)C(=O)N[C@@H](CO)C(=O)NCC(=O)N[C@@H](C)C(=O)N1CCC[C@H]1C(=O)N1CCC[C@H]1C(=O)N1CCC[C@H]1C(=O)N[C@@H](CO)C(N)=O [Compound 171] ({Isobutyryl(2-(3-CN-5-F-Ph))}-[X68]EGTFTSDYSI[Aib]LDKIAQK([AEEA-AEEA-γGlu-C20 diacid])AFVQWLIAGGPSSGAPPPS-NH2) | > 1000 | 10 to 100 | 109 | > 1000 | 100 to 1000 | 94
